Experimental data: patent US20240279278A1, “NMU RECEPTOR 2 AGONISTS” (Boehringer Ingelheim International GmbH, priority 2023, published 2024)
≈ marks a conversion by molar mass, not a printed value. Residues, ends and D or L forms follow the SMILES beside them.

Legend:
[1] = physchem; type: physicochemical
Description: Example 6: Solubility Determination
Peptides (as TFA-salts) were weighed out in a filter unit (Mini-UniPrep Syringeless Filter 0.45 μm, Whatman PVDF), and 0.1 M phosphate buffer at pH 6 to 8 was added to achieve 10 mg/mL final peptide concentration. The peptides were dissolved by shaking the filter units horizontally at 350 rpm for 2 hours at room temperature. Samples were then filtered to remove any insoluble particles. Controls were prepared by weighing out the corresponding peptide solid material and dissolving it in an appropriate vehicle (e.g. buffer or DMSO) to a final concentration of 1 mg/mL. Both, the control and sample were analyzed by reversed phase chromatography. The area under the peak of the sample was compared to the control and the solubility was calculated based on that ratio. The pH was measured and recorded for each sample.

[2] = biological target: T1, human NMUR1 receptor (Homo sapiens, UniProt Q9HB89); assay: Radioligand binding competition assay (RLB), human NMUR1 receptor binding (SPA, [125I]-Neuromedin U-25); conditions: CHO-K1 hNMUR1 cell membranes, 4 hours at RT
T1 construct: host or cells: CHO-K1
T1 sequence (Q9HB89 24-426 limits assumed): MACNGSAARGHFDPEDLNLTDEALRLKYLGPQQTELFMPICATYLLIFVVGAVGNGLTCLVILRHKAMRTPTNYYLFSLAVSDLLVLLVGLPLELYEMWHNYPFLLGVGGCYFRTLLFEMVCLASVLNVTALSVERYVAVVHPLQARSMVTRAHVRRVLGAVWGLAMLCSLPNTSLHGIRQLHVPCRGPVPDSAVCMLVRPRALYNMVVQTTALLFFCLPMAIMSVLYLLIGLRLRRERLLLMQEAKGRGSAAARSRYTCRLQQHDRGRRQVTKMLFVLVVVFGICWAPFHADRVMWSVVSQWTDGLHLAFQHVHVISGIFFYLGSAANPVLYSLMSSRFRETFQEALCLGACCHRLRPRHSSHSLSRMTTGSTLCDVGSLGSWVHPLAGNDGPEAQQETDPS
Description: Example 2: Radioligand Binding Competition Assay (RLB) Human NMUR1 Receptor Binding 1) Membranes The test is based on membranes prepared from a human NMUR1/Apoaequorin Stable Cell Line (Creative Biogene, Cat. No. CSC-RG1308). Cell Line Description: CHO-NMUR1 cell line is clonally-derived from a CHO-K1 cell line, which has been transfected with a bicistronic expression plasmid containing the sequence coding for the human neuromedin U receptor 1 (NM_006056.4, 180 to 1391). Mosaic-ID: CL16550614 Membrane preparation: Cells were broken by nitrogen cavitation (900 psi, 1 hour). Intact cells were removed by centrifugation (400 rcf, 10 minutes, 4° C.) before the crude membrane fraction was collected by ultracentrifugation (20.000 rcf, 1 hour, 4° C.). 2) Human NMUR1 Receptor Binding Assay (Radioligand: [125l]-Neuromedin U-25) In this Scintillation Proximity Assay (SPA) design, the membranes immobilize directly to the PVT-WGA-PEI type A beads (polyethyleneimine treated polyvinyltoluene beads coupled to wheatgerm agglutinin, Perkin Elmer) via interactions of wheat germ agglutinate and glycosylated membrane structures. Thereby the radioactively la-belled ligand, bound to NMUR1 receptors on the membrane, comes in close proximity to the solid scintillator of the PVT bead. Radioactive human neuromedin U-25 then stimulates the scintillant to emit light. In contrast, radioligand not bound to the receptor is too distant from the bead to elicit a signal. For the Scintillation Proximity Assay the CHO-K1 hNMUR1 cell membranes and SPA-beads are diluted to concentrations, which assure a robust signal to background ratio. The SPA incubation buffer consists of 25 mM Hepes (pH=7.0), 5 mM MgCl2, 1 mM CaCl2, 10 ug/mL Saponine and 0.1% bovine serum albumin and is used for all dilutions. Final assay setup in 96-well plate: 20 μL of 10× test compound dilutions+40 μL of 5× [125l]-Neuromedin U-25 (1× approx. 30 pM; 2000 μCi/mmol (μCi=microcurie))+60 μL membrane dilution (approx. 1.0 μg membrane protein)+80 μL SPA bead dilution (250 μg). The assay is incubated for 4 hours at RT, including controls for specific binding where no displacer is added and non-specific binding by adding unlabeled hNMU-25 at 100 nM. Bound radioactivity is determined by scintillation counting (MicroBeta Trilux 1450, Perkin Elmer, detection of 125I decay). […] The system assumes one binding site with no relevant radioligand depletion (<10%) and that the binding is reversible and at equilibrium. [formula] [formula]

[3] = biological target: human NMUR2 receptor (Homo sapiens, UniProt Q9GZQ4); assay: Radioligand binding competition assay (RLB), human NMUR2 receptor binding (SPA, [125I]-Neuromedin U-25); design: host or cells: CHO-K1; conditions: CHO-K1 hNMUR2 cell membranes, 4 hours at RT
Description: Example 1: Radioligand Binding Competition Assay (RLB) Human NMUR2 Receptor Binding
The test is based on membranes prepared from a Human NMUR2/Apoaequorin Stable Cell Line (Creative Biogene, Cat. No. CSC-RG1309).
Cell Line Description: CHO-NMUR2 cell line is clonally derived from a CHO-K1 cell line, which has been transfected with a bicistronic expression plasmid containing the sequence coding for the human neuromedin U receptor 2 (AF242874.1). MOSAIC-ID: CL16550616.
Membrane preparation: Cells were broken by nitrogen cavitation (900 psi, 1 hour). Intact cells were removed by centrifugation (400 rcf (relative centrifugal force), 10 minutes, 4° C.) before the crude membrane fraction was collected by ultracentrifugation (20.000 rcf, 1 hour, 4° C.).
2) Human NMUR2 Receptor Binding Assay (Radioligand: [125I]-Neuromedin U-25 (Human))
In this Scintillation Proximity Assay (SPA) design, the membranes immobilize directly to the PVT-WGA-PEI type A beads (polyethyleneimine treated polyvinyltoluene beads coupled to wheatgerm agglutinin, Perkin Elmer) via interactions of wheat germ agglutinate and glycosylated membrane structures. Thereby the radioactively la-belled ligand, bound to NMUR2 receptors on the membrane, comes in close proximity to the solid scintillator of the PVT bead. Radioactive human neuromedin U-25 then stimulates the scintillant to emit light. In contrast, radioligand not bound to the receptor is too distant from the bead to elicit a signal.
For the Scintillation Proximity Assay the CHO-K1 hNMUR2 cell membranes and SPA-beads are diluted to concentrations, which assure a robust signal to background ratio. The SPA incubation buffer consists of 25 mM Hepes (pH=7.0), 5 mM MgCl2, 1 mM CaCl2, 10 ug/mL Saponine and 0.1% bovine serum albumin and is used for all dilutions.
Final assay setup in 96-well plate: 20 μL of 10× test compound dilutions+40 μL of 5× [125l]-Neuromedin U-25 (1× approx. 30 pM; 2000 μCi/mmol)+60 μL membrane dilution (approx. 2.5 μg membrane protein)+80 μL SPA bead dilution (0.75 mg).
The assay is incubated for 4 hours at RT, including controls for specific binding where no displacer is added and non-specific binding by adding unlabeled hNMU-25 at 100 nM. Bound radioactivity is determined by scintillation counting (MicroBeta Trilux 1450, Perkin Elmer, detection of 125I decay). […] The system assumes one binding site with no relevant radioligand depletion (<10%) and that the binding is reversible and at equilibrium.

Chain of human NMUR2 receptor (Q9GZQ4 whole entry): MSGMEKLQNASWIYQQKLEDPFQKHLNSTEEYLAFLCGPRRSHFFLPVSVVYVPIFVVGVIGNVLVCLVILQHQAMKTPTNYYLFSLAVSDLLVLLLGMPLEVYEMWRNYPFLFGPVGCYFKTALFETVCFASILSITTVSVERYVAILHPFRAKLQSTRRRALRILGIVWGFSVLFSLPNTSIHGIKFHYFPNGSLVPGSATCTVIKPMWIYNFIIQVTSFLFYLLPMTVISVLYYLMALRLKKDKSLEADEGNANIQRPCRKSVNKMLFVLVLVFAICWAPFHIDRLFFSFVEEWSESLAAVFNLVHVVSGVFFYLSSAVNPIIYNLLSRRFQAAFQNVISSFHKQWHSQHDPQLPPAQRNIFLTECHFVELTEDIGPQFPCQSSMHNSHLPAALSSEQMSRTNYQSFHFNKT

Ki [2] [nM] | Ki [3] [nM] | solubility at 2 h ([1]; pH 7.2) [µg/mL] | solubility at 2 h ([1]; pH 7.3) [µg/mL] | Structure (SMILES) | solubility at 2 h ([1]; pH 7.5) [µg/mL] | solubility at 2 h ([1]; pH 7) [µg/mL]
> 10000 | 10.1 | 4600 (≈ 1660 µM) | – | CCCC[C@H](NC(=O)[C@H](CC(C)C)N(C)C(=O)[C@H](Cc1ccccc1)NC(=O)[C@H](Cc1ccc(O)cc1)NC(=O)CN1CCN(CCNC(=O)CN(C)C(=O)CN(C)C(=O)CN(C)C(=O)CN(C)C(=O)CN(C)C(=O)CN(C)C(=O)CN(C)C(=O)CN(C)C(=O)CN(C)C(=O)CN(C)C(=O)CN(C)C(=O)CN(C)C(=O)CC[C@H](NC(=O)CC[C@H](NC(=O)CC[C@H](NC(=O)CCCCCCCCCCCCCCCCCCC(=O)O)C(=O)O)C(=O)O)C(=O)O)CC1)C(=O)N[C@@H](CCCNC(=N)N)C(=O)N1CCC[C@H]1C(=O)N[C@@H](CCCNC(=N)N)C(=O)NCC(N)=O [Compound 6, C20DA-gGlu3-Sar12-AEPipAc-Tyr-Phe-NMeLeu-Nle-Arg-Pro-Arg-Gly-NH2] | – | –
> 10000 | 89.1 | – | 1900 (≈ 701 µM) | CCCC[C@H](NC(=O)[C@H](CC(C)C)N(C)C(=O)[C@H](Cc1ccccc1)NC(=O)[C@H](Cc1ccc(O)cc1)NC(=O)CN1CCN(CCNC(=O)CN(C)C(=O)CN(C)C(=O)CN(C)C(=O)CN(C)C(=O)CN(C)C(=O)CN(C)C(=O)CN(C)C(=O)CN(C)C(=O)CN(C)C(=O)CN(C)C(=O)CN(C)C(=O)CN(C)C(=O)CC[C@H](NC(=O)CC[C@H](NC(=O)CC[C@H](NC(=O)CCCCCCCCCCCCCCCCCCC(=O)O)C(=O)O)C(=O)O)C(=O)O)CC1)C(=O)N[C@@H](CCN)C(=O)N1CCC[C@H]1C(=O)N[C@@H](CCCNC(=N)N)C(=O)NCC(N)=O [Compound 8, C20DA-gGlu3-Sar12-AEPipAc-Tyr-Phe-NMeLeu-Nle-Dbu-Pro-Arg-Gly-NH2] | – | –
> 10000 | 23.7 | 8400 (≈ 3130 µM) | – | CCCC[C@H](NC(=O)[C@H](CC(C)C)N(C)C(=O)[C@H](Cc1ccccc1)NC(=O)[C@H](Cc1ccc(O)cc1)NC(=O)CN1CCN(CCNC(=O)CN(C)C(=O)CN(C)C(=O)CN(C)C(=O)CN(C)C(=O)CN(C)C(=O)CN(C)C(=O)CN(C)C(=O)CN(C)C(=O)CN(C)C(=O)CN(C)C(=O)CN(C)C(=O)CN(C)C(=O)CC[C@H](NC(=O)CC[C@H](NC(=O)CC[C@H](NC(=O)CCCCCCCCCCCCCCCCC(=O)O)C(=O)O)C(=O)O)C(=O)O)CC1)C(=O)N[C@@H](CCCN)C(=O)N(C)[C@@H](C)C(=O)N[C@@H](CCCNC(=N)N)C(=O)NCC(N)=O [Compound 20, C18DA-gGlu3-Sar12-AEPipAc-Tyr-Phe-NMeLeu-Nle-Orn-NMeAla-Arg-Gly-NH2] | – | –

Structure (SMILES) | Ki [2] [nM] | Ki [3] [nM] | solubility at 2 h ([1]; pH 7.2) [µg/mL] | solubility at 2 h ([1]; pH 7.3) [µg/mL] | solubility at 2 h ([1]; pH 7.5) [µg/mL] | solubility at 2 h ([1]; pH 7) [µg/mL]
CCCC[C@H](NC(=O)[C@H](CC(C)C)N(C)C(=O)[C@H](Cc1ccccc1)NC(=O)[C@H](Cc1ccc(O)cc1)NC(=O)CN1CCN(CCNC(=O)CN(C)C(=O)CN(C)C(=O)CN(C)C(=O)CN(C)C(=O)CN(C)C(=O)CN(C)C(=O)CN(C)C(=O)CN(C)C(=O)CN(C)C(=O)CN(C)C(=O)CN(C)C(=O)CN(C)C(=O)CN(C)C(=O)CN(C)C(=O)CN(C)C(=O)CC[C@H](NC(=O)CC[C@H](NC(=O)CC[C@H](NC(=O)CCCCCCCCCCCCCCCCCCC(=O)O)C(=O)O)C(=O)O)C(=O)O)CC1)C(=O)N[C@@H](CCCN)C(=O)N1CCC[C@H]1C(=O)N[C@@H](CCCNC(=N)N)C(=O)NCC(N)=O [Compound 1, C20DA-gGlu3-Sar15-AEPipAc-Tyr-Phe-NMeLeu-Nle-Orn-Pro-Arg-Gly-NH2] (HELM PEPTIDE1{[O=C(O)CCCCCCCCCCCCCCCCCCC(=O)[*:2]].[gGlu].[gGlu].[gGlu].[Sar].[Sar].[Sar].[Sar].[Sar].[Sar].[Sar].[Sar].[Sar].[Sar].[Sar].[Sar].[Sar].[Sar].[Sar].[O=C(CN1CCN(CCN[*:1])CC1)[*:2]].Y.F.[meL].[Nle].[Orn].P.R.G.[am]}$$$$V2.0) | > 10000 | 8.6 | – | – | 8200 (≈ 2790 µM) | –
CCCC[C@H](NC(=O)[C@H](CC(C)C)N(C)C(=O)[C@H](Cc1ccccc1)NC(=O)[C@H](Cc1ccc(O)cc1)NC(=O)CN1CCN(CCNC(=O)CN(C)C(=O)CN(C)C(=O)CN(C)C(=O)CN(C)C(=O)CN(C)C(=O)CN(C)C(=O)CN(C)C(=O)CN(C)C(=O)CN(C)C(=O)CN(C)C(=O)CN(C)C(=O)CN(C)C(=O)CN(C)C(=O)CN(C)C(=O)CN(C)C(=O)CC[C@H](NC(=O)CC[C@H](NC(=O)CC[C@H](NC(=O)CCCCCCCCCCCCCCCCC(=O)O)C(=O)O)C(=O)O)C(=O)O)CC1)C(=O)N[C@@H](CCCNC(=N)N)C(=O)N1CCC[C@H]1C(=O)N[C@@H](CCCNC(=N)N)C(=O)NCC(N)=O [Compound 7, C18DA-gGlu3-Sar15-AEPipAc-Tyr-Phe-NMeLeu-Nle-Arg-Pro-Arg-Gly-NH2] (HELM PEPTIDE1{[O=C(O)CCCCCCCCCCCCCCCCC(=O)[*:2]].[gGlu].[gGlu].[gGlu].[Sar].[Sar].[Sar].[Sar].[Sar].[Sar].[Sar].[Sar].[Sar].[Sar].[Sar].[Sar].[Sar].[Sar].[Sar].[O=C(CN1CCN(CCN[*:1])CC1)[*:2]].Y.F.[meL].[Nle].R.P.R.G.[am]}$$$$V2.0) | 3740 | 22.8 | – | – | – | 7000 (≈ 2370 µM)
